In patent US20100317715A1, “METHODS FOR TREATING NEUROPSYCHIATRIC CONDITIONS” (priority 2007, published 2010):
Where two headings read alike, the source gives them in different places.

Tests used:
[1] = biological target: PAK1 (Homo sapiens, UniProt Q13153); experiment: Competitive binding assay (phage-displayed kinase vs immobilized staurosporine bait), PAK1
[2] = biological target: PAK2 (Homo sapiens, UniProt Q13177); experiment: Competitive binding assay (phage-displayed kinase vs immobilized staurosporine bait), PAK2
Chain of PAK2 (Q13177 whole entry): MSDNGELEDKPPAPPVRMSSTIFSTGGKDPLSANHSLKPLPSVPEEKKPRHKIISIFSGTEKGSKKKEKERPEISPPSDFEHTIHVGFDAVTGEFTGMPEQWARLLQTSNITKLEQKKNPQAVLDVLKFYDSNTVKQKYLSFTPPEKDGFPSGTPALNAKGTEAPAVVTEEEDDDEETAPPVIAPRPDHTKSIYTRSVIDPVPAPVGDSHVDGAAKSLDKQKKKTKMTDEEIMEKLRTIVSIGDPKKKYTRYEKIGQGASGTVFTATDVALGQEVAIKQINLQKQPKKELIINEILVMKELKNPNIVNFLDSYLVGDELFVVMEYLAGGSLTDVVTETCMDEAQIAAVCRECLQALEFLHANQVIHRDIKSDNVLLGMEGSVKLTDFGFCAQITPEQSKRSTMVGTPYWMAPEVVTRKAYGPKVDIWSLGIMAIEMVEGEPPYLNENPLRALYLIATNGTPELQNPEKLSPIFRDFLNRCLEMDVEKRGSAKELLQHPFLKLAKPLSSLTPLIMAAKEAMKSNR

[3] = biological target: PAK7 (Homo sapiens, UniProt Q9P286); experiment: Competitive binding assay (phage-displayed kinase vs immobilized staurosporine bait), PAK7; conditions: PAK Inhibitor Affinity Assay
Chain of PAK7 (Q9P286 whole entry): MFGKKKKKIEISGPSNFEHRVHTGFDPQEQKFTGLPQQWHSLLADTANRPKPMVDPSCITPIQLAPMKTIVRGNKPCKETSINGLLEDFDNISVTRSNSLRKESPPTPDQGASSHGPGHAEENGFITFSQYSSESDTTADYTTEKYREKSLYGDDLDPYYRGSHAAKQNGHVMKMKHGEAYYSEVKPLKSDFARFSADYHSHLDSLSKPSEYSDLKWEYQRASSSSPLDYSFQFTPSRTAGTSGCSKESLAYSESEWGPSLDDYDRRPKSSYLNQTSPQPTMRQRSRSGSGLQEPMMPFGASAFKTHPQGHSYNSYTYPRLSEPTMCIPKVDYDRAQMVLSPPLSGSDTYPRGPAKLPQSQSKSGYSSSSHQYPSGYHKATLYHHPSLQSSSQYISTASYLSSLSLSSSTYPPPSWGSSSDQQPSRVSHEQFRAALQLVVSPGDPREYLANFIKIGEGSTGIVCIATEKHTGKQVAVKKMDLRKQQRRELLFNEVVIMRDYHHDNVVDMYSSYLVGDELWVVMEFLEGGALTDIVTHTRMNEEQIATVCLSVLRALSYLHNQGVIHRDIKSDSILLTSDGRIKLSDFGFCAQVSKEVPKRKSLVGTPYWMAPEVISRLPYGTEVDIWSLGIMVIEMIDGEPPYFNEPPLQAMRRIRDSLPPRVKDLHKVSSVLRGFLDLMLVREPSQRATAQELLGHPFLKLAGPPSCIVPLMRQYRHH

[4] = biological target: PAK6 (Homo sapiens, UniProt Q9NQU5); experiment: biochemical; format: binding; conditions: PAK Inhibitor Affinity Assay
Chain of PAK6 (Q9NQU5 whole entry): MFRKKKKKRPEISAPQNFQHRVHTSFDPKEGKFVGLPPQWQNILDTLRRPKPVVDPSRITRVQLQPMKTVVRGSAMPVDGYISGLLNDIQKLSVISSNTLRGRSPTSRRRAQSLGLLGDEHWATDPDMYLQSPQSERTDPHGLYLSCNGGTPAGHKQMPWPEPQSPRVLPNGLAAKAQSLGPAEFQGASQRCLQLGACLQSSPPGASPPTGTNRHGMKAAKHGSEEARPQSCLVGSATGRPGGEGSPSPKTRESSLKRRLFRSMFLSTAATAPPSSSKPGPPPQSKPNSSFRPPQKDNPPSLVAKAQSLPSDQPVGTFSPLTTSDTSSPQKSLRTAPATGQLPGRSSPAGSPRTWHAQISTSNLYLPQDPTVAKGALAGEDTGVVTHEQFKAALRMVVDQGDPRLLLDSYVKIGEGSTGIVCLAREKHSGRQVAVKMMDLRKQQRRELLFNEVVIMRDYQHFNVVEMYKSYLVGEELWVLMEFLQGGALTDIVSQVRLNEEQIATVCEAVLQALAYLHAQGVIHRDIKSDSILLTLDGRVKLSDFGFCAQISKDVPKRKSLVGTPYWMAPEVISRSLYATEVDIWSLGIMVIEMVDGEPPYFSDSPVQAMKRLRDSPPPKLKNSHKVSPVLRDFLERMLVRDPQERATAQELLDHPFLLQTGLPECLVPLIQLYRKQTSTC

[5] = biological target: PAK4 (Homo sapiens, UniProt O96013); experiment: Competitive binding assay (phage-displayed kinase vs immobilized staurosporine bait), PAK4; conditions: PAK Inhibitor Affinity Assay
Chain of PAK4 (O96013 whole entry): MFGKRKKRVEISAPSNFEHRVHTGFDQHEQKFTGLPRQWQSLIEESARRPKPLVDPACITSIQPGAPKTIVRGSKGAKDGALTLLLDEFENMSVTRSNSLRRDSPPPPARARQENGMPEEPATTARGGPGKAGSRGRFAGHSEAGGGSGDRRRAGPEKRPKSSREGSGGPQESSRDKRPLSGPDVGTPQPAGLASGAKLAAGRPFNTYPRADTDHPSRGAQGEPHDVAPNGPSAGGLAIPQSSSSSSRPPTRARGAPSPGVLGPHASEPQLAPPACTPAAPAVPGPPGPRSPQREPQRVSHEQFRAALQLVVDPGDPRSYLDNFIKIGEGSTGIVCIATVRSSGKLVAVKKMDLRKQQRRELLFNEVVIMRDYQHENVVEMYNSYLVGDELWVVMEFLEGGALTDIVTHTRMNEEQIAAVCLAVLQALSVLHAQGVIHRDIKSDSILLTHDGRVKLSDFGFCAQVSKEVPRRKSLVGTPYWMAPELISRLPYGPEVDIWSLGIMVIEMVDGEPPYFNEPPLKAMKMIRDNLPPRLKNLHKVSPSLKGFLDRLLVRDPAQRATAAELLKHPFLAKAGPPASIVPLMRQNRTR

Chain of PAK1 (Q13153 whole entry): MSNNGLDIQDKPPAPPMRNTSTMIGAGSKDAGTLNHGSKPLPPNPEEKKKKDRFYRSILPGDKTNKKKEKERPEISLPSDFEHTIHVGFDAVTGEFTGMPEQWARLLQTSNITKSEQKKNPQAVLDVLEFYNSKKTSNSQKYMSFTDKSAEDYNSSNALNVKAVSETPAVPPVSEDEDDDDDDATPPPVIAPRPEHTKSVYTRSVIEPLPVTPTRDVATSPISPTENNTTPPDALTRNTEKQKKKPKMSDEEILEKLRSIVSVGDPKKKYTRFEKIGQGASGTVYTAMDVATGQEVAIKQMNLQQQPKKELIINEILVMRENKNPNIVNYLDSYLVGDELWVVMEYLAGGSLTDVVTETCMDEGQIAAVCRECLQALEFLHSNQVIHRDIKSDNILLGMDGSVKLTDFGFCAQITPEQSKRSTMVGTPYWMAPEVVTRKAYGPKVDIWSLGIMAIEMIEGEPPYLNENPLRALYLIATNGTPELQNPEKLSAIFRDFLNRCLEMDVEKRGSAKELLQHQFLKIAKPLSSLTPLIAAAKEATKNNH

Structure (SMILES) | Kd ([1]; PAK Inhibitor Affinity Assay, read-out: Kd PAK1) | Kd ([2]; PAK Inhibitor Affinity Assay, read-out: Kd PAK2) | Kd [3] | Kd [4] | Kd [5] | Kd [1] | Kd [2]
CCOc1cc2ncc(C#N)c(Nc3ccc(F)c(Cl)c3)c2cc1NC(=O)/C=C/CN(C)C [EKB-569] | < 5 µM | ≥ 10 µM | ≥ 10 µM | ≥ 10 µM | ≥ 10 µM |  | 
Nc1nc(Nc2ccc(S(N)(=O)=O)cc2)nn1C(=O)c1c(F)cccc1F [JNJ-7706621] |  |  |  | < 5 µM |  | ≥ 10 µM | ≥ 10 µM
